From US20190100519A1, “HYDROCHLORIDE SALT CRYSTAL OF DRUG FOR TREATING OR PREVENTING JAK-ASSOCIATED DISEASE AND PREPARATION METHOD THEREOF” (CRYSTAL PHARMATECH CO., LTD., priority 2016, published 2019)
Converted amounts (≈) assume the structure as drawn. Like-named read-outs stand apart in the source and are kept apart here.

Key:
[1] = Particle size comparison experiment (laser particle size analyzer); format: physicochemical; details: wet method, Isopar G
Description: Wet method was used and Isopar G was used as the dispersion medium. [table] The particle size distributions of obtained Form A (example 2), Form B (example 4), Form C (example 5), Form D (example 8) and the reference form were measured.

[2] = Solubility assessment (saturated solutions, HPLC); format: physicochemical; details: for solubility at 1 h / solubility at 4 h: thermodynamic from solid
Description: The concentration of the saturated solutions was measured through HPLC after 1 hour and 4 hours.

[3] = clinical trials; cited from earlier work
[4] = Stability assessment of Form A (storage, XRPD); format: physicochemical; details: two weeks
Description: 5 samples (10.0 mg each) of Form A obtained from example 2 was stored at 5° C., 25° C./60% RH, 40° C./75% RH, 60° C./75% RH and 80° C. for two weeks, then XRPD test was performed after one week and two weeks. The results are depicted in FIG. 6 and FIG. 7. FIG. 6 is the XRPD overlay of one-week stability, and the patterns from top to bottom are initial Form A, and Form A after storing at 25° C./60% RH, 40° C./75% RH, 60° C./75% RH, 80° C. for one week, respectively. FIG. 7 is the XRPD overlay of two-week stability, and the patterns from top to bottom are initial Form A, and Form A after storing at 25° C./60% RH, 40° C./75% RH, 60° C./75% RH and 80° C. for two weeks, respectively.

[5] = Slurry experiment in different water activities (XRPD); format: physicochemical
Description: The samples were centrifuged after 48 hours, and tested by XRPD.

[6] = simulated gastric fluid, Solubility SGF

Row | SMILES | D10 [1] [μm] | D50 [1] [μm] | D90 [1] [μm] | MV (average particle size calculated by volume) [1] [μm] | solubility compared with reference form [2] | Solubility SGF ([2]; 1 h) [µg/mL] | Solubility Water ([2]; 1 h) [µg/mL] | Solubility SGF ([2]; 4 h) [µg/mL] | Solubility Water ([2]; 4 h) [µg/mL] | also measured
1 | Cl.O=C(Nc1nc2cccc(-c3ccc(CN4CCS(=O)(=O)CC4)cc3)n2n1)C1CC1 [Form B] | 2.53 | 20.30 | 110.4 | 44.66 | higher solubility than the reference form | 1450 | 5020 | 960 | 3590 | –
2 | O=C(Nc1nc2cccc(-c3ccc(CN4CCS(=O)(=O)CC4)cc3)n2n1)C1CC1 [Filgotinib, N-[5-[4-[(1,1-dioxo-1-thiomorpholin-4-yl)methyl]phenyl][1,2,4]triazole[1,5-a]pyridin-2-yl] cyclopropanecarboxamide] | – | – | – | – | – | – | – | – | – | anemia and abnormal increase in LDL [3]: does not cause an anemia and abnormal increase in LDL
3 | Cl.O=C(Nc1nc2cccc(-c3ccc(CN4CCS(=O)(=O)CC4)cc3)n2n1)C1CC1 [Form A] | 1.72 | 8.93 | 62.08 | 24.64 | higher solubility than the reference form | – | 1080 | – | – | form change (XRPD) after storage ([4]; 5° C.): no form change; form change (XRPD) after storage ([4]; 25° C./60% RH): no form change; form change (XRPD) after storage ([4]; 40° C./75% RH): no form change; form change (XRPD) after storage ([4]; 60° C./75% RH): no form change; form change (XRPD) after storage ([4]; 80° C.): no form change; solubility at 1 h [2, 6]: 1280 µg/mL; solubility at 4 h [2, 6]: 1200 µg/mL; solubility at 4 h ([2]; water, Solubility Water): 2430 µg/mL
4 | Cl.O=C(Nc1nc2cccc(-c3ccc(CN4CCS(=O)(=O)CC4)cc3)n2n1)C1CC1 [Form D] | 5.77 | 25.92 | 82.42 | 41.24 | higher solubility than the reference form | 2220 | 3000 | 1150 | 2370 | –
5 | Cl.O=C(Nc1nc2cccc(-c3ccc(CN4CCS(=O)(=O)CC4)cc3)n2n1)C1CC1 [Form C] | 1.87 | 13.57 | 66.16 | 29.92 | higher solubility than the reference form | 1930 | 5180 | 1120 | 3060 | –
6 | O=C(Nc1nc2cccc(-c3ccc(CN4CCS(=O)(=O)CC4)cc3)n2n1)C1CC1 [Reference form, reference compound] | 2.95 | 6.29 | 12.35 | 7.24 | – | – | – | – | – | Final Form ([5]; H2O/ACN 1:99, water activity 0.2, slurry 48 hours): Form A; Final Form ([5]; H2O/ACN 2:98, water activity 0.4, slurry 48 hours): Form A; Final Form ([5]; H2O/EtOH 2:98, water activity 0.15, slurry 48 hours): Form A; Final Form ([5]; H2O/MeOH 7:93, water activity 0.2, slurry 48 hours): Form A; Final Form ([5]; H2O/MeOH 16:84, water activity 0.4, slurry 48 hours): Form A; stability under low water activity ([5]; low water activity): not stable; solubility at 1 h ([2]; simulated gastric fluid (SGF), simulated gastric fluid, simulated gastric fluid (SGF), 1 h, read-out: Solubility SGF): 70 µg/mL (≈ 165 µM); solubility at 4 h ([2]; simulated gastric fluid (SGF), simulated gastric fluid, simulated gastric fluid (SGF), 4 h, read-out: Solubility SGF): 920 µg/mL (≈ 2160 µM); solubility at 1 h ([2]; water, water, 1 h, read-out: Solubility Water): 810 µg/mL (≈ 1900 µM); solubility at 4 h ([2]; water, water, 4 h, read-out: Solubility Water): 3000 µg/mL (≈ 7050 µM)
